From patent publication EP4800012A1, “COMPOUND ACTING AS PARP7 INHIBITOR” (Dovetree Medicines Unus, Inc., priority 2023, dated 2025)
Read-outs that look alike come from different tables or passages of the source.

Legend:
[1] = target: T1, PARP7 (Homo sapiens, UniProt Q7Z3E1); experiment: PARP7 TR-FRET binding inhibition (displacement of probe RBN011147)
T1 construct: purchased BPS 80527
T1 sequence (Q7Z3E1 1-657): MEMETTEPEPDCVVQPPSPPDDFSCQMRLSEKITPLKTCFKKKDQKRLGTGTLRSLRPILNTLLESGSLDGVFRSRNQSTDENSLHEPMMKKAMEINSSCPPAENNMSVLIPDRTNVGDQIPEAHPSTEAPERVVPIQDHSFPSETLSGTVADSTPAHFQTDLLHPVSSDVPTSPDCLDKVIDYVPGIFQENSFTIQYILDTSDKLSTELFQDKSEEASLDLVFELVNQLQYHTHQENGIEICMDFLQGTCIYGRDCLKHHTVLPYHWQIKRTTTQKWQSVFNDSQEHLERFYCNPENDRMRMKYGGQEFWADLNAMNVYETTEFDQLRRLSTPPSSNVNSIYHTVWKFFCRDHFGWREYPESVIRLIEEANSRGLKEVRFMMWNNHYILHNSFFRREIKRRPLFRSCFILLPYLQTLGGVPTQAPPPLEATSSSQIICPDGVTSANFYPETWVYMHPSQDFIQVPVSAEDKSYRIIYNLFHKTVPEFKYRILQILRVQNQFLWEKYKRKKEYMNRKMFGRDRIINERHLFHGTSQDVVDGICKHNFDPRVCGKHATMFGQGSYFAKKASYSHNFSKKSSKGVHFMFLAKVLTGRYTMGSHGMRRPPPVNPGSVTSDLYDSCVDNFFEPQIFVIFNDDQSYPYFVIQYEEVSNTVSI
Method: The ability of the compound to substitute the probe RBN011147 (Wigle et al., 2020, Cell Chemical Biology 27, 877-887) was tested by a TR-FRET method, and IC50 was calculated to evaluate the binding ability of the compound to PARP7. […]

[2] = target: PARP1 (Homo sapiens, UniProt P09874); experiment: PARP1 in vitro enzyme activity inhibition (chemiluminescence assay); assay type: biochemical
Method: (§1) Following the method in test example 1, the IC50 value of the inhibition of each compound on PARP7 activity were detected and obtained. Reference was made to the method in test example 1, except that the 6.25 nM of PARP7 solution in the ribosylation reaction step was replaced with a 5 nM of PARP1 solution or a 5 nM of PARP2. Similar to the 6.25 nM of PARP7 solution, the 5 nM of PARP1 solution and 5 nM of PARP2 solution were also formulated and obtained by using 1× Assay buffer.

[3] = tested on: NCI-H1373 cells; experiment: Inhibition on NCI-H1373 cell proliferation (Cell-Titer-Glo); assay type: cell-based; conditions: Homo sapiens, 144 h; NCI-H1373 cells, incubation for 6 days, Cell-Titer-Glo; read-out: NCI-H1373 cell proliferation inhibition IC50
[4] = target: T1, PARP7; experiment: PARP7 in vitro enzyme activity inhibition (chemiluminescence assay, selectivity test); assay type: biochemical
Method: as §1

[5] = target: T1, PARP7; experiment: Inhibition of the compound on PARP7 protein activity (ADP-ribosylation, chemiluminescence); assay type: biochemical
[6] = target: PARP2 (Homo sapiens, UniProt Q9UGN5); experiment: PARP2 in vitro enzyme activity inhibition (chemiluminescence assay); assay type: biochemical
Method: as §1

[7] = TR-FRET, Biotin-labeled probe RBN011147; read-out: PARP7 binding inhibition IC50
[8] = 5 nM of PARP1 solution, method of test example 1; read-out: PARP1 activity inhibition IC50
[9] = 6.25 nM of PARP7 solution, method of test example 1; read-out: PARP7 activity inhibition IC50
[10] = Histone H1 coated plate, Biotin-Labeled NAD+, 2 h at room temperature, chemiluminescence; read-out: PARP7 activity inhibition IC50
[11] = 5 nM of PARP2, method of test example 1; read-out: PARP2 activity inhibition IC50

Chain of PARP2 (Q9UGN5 whole entry, species assumed): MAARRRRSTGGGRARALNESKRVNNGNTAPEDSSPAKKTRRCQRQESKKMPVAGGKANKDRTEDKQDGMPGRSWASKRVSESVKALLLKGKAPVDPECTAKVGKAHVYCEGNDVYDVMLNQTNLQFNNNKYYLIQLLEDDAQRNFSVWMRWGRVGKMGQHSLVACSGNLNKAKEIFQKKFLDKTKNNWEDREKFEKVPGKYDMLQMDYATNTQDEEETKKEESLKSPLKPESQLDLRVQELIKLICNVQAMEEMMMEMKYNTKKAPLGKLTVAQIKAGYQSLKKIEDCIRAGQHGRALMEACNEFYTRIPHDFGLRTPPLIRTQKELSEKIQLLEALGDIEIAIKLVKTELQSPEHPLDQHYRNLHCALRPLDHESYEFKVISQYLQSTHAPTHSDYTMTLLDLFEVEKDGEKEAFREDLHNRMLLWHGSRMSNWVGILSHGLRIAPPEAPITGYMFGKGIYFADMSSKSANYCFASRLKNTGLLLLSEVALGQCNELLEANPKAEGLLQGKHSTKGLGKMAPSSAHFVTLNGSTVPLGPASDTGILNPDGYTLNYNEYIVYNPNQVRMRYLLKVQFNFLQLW
Chain of PARP1 (P09874 whole entry, species assumed): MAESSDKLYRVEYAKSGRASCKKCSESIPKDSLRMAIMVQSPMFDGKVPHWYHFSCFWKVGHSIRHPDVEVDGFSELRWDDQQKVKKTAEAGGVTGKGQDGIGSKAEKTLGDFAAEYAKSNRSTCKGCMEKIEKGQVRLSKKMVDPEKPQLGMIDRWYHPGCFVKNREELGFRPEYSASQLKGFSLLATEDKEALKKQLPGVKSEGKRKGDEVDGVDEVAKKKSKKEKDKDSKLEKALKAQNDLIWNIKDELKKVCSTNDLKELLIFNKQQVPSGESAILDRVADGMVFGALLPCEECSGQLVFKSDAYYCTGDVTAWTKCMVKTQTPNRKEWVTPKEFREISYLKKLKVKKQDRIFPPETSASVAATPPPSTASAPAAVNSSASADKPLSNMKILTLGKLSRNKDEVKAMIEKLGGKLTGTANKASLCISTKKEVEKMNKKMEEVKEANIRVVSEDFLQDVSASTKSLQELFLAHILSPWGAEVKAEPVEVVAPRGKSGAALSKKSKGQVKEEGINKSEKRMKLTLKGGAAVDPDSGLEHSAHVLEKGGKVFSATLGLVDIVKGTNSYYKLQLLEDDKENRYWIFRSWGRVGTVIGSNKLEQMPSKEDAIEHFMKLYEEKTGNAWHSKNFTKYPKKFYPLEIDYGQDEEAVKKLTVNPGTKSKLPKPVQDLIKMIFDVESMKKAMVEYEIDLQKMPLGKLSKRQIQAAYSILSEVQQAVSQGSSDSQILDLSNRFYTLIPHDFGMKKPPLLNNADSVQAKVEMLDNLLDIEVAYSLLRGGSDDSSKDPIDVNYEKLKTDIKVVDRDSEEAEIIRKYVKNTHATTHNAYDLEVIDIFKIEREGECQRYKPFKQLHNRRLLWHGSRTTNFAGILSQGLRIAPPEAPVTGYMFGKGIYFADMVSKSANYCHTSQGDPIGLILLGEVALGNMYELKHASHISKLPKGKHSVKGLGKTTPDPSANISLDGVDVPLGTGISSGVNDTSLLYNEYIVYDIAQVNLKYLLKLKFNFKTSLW

Structure (SMILES)	IC50 [1, 7] [nM]	IC50 [2, 8] [nM]	IC50 [3] [nM]	IC50 [4, 9] [nM]	IC50 [5, 10] [nM]	IC50 [6, 11] [nM]	IC50 ([1]; read-out: PARP7 binding inhibition IC50; TR-FRET, Biotin-labeled probe RBN011147) [nM]	IC50 ([2]; read-out: PARP1 activity inhibition IC50; 5 nM of PARP1 solution, method of test example 1) [nM]	IC50 ([4]; read-out: PARP7 activity inhibition IC50; 6.25 nM of PARP7 solution, method of test example 1) [nM]	IC50 ([5]; read-out: PARP7 activity inhibition IC50; Histone H1 coated plate, Biotin-Labeled NAD+, 2 h at room temperature, chemiluminescence) [nM]	IC50 ([6]; read-out: PARP2 activity inhibition IC50; 5 nM of PARP2, method of test example 1) [nM]
CC(CCCNC(=O)c1cnc(-c2ncc(C(F)(F)F)cn2)cn1)Nc1cn[nH]c(=O)c1C(F)(F)F (stereo not drawn) [Example 4]	< 10	30 to 100	300 to 1000	< 3	< 3	3 to 10					
Cc1c(CCC(=O)Nc2ccc(-c3ncc(C(F)(F)F)cn3)cc2)c[nH]c(=O)c1C(F)(F)F [Example 10]	< 10	3 to 10	1000 to 3000	< 3	< 3	3 to 10					
O=C(CCc1c[nH]c(=O)c(C(F)(F)F)c1N1CC2(CCC2)C1)Nc1ccc(-c2ncc(C(F)(F)F)s2)cn1 [Example 69]	< 10	> 100	> 3000	< 3	< 3	> 100					
O=C(CCc1c[nH]c(=O)c(C(F)(F)F)c1N1CC2(CCC2)C1)Nc1ccc(-c2ncc(C(F)(F)F)cn2)cn1 [Example 70]			> 3000				< 10	> 100	3 to 10	3 to 10	> 100
O=C(NCCCC(Nc1cn[nH]c(=O)c1C(F)(F)F)C(=O)N1CC2(CCC2)C1)c1cnc(-c2ncc(C(F)(F)F)cn2)cn1 (stereo not drawn) [Example 87]	10 to 30	30 to 100	< 300	< 3	< 3	10 to 30					
O=C(NCCCC(Nc1cn[nH]c(=O)c1C(F)(F)F)C(=O)N1CCOCC1)c1cnc(-c2ncc(C(F)(F)F)cn2)cn1 (stereo not drawn) [Example 90]	30 to 100	30 to 100	> 3000	< 3	< 3	30 to 100					
O=C(NCCc1n[nH]c(=O)c(C(F)(F)F)c1N1CC2(CCC2)C1)c1cnc(-c2ncc(C(F)(F)F)cn2)cn1 [Example 166]	> 100	> 100	> 3000	3 to 10	3 to 10	> 100					
CC1(C)CN(C(=O)C(CCCNC(=O)c2cnc(-c3ncc(C(F)(F)F)cn3)cn2)Nc2cn[nH]c(=O)c2C(F)(F)F)C1 (stereo not drawn) [Example 174]	10 to 30	30 to 100	> 3000	3 to 10	3 to 10	3 to 10					
CC(CCCNC(=O)c1ccc(-c2cc(C(F)(F)F)n(C)n2)cc1)Nc1cn[nH]c(=O)c1C(F)(F)F (stereo not drawn) [Example 185]	30 to 100		300 to 1000		< 3						
CC(CCCNC(=O)c1ccc(-c2noc(C3CC3)n2)cc1)Nc1cn[nH]c(=O)c1C(F)(F)F (stereo not drawn) [Example 186]	10 to 30		1000 to 3000		< 3						
CC(CCCNC(=O)c1ccc(-c2ccc(-c3cnco3)cn2)cc1)Nc1cn[nH]c(=O)c1C(F)(F)F (stereo not drawn) [Example 188]	10 to 30		> 3000		< 3						
Cc1nc(-c2ccc(C(=O)NCCCC(C)Nc3cn[nH]c(=O)c3C(F)(F)F)cc2)sc1C (stereo not drawn) [Example 189]	30 to 100		1000 to 3000		< 3						
CC(CCCNC(=O)c1ccc(-c2nn(C)cc2F)cc1)Nc1cn[nH]c(=O)c1C(F)(F)F (stereo not drawn) [Example 192]	30 to 100		> 3000		3 to 10						
CC(CCCNC(=O)c1cnc(-c2cc(C(F)(F)F)sn2)c(F)c1)Nc1cn[nH]c(=O)c1C(F)(F)F (stereo not drawn) [Example 205]	< 10		300 to 1000		< 3						
CC(CCCNC(=O)c1ccc(-n2cc(C(F)(F)F)cn2)nc1)Nc1cn[nH]c(=O)c1C(F)(F)F (stereo not drawn) [Example 206]	< 10		1000 to 3000		< 3						
CC(CCCNC(=O)c1ccc(-c2cc(C(F)(F)F)sn2)nc1)Nc1cn[nH]c(=O)c1C(F)(F)F (stereo not drawn) [Example 207]	10 to 30		1000 to 3000		< 3						
CC(CCCNC(=O)c1ccc(-c2ncc(C(F)(F)F)s2)cn1)Nc1cn[nH]c(=O)c1C(F)(F)F (stereo not drawn) [Example 209]	10 to 30		< 300		< 3						
CC(CCCNC(=O)c1ccc(-c2ncc(C(F)(F)F)s2)nc1)Nc1cn[nH]c(=O)c1C(F)(F)F (stereo not drawn) [Example 211]	< 10		1000 to 3000		< 3						
CC(CCCNC(=O)c1ccc(-c2cc(C(F)(F)F)sn2)cc1F)Nc1cn[nH]c(=O)c1C(F)(F)F (stereo not drawn) [Example 212]	< 10		< 300		< 3						
CC(CCCNC(=O)c1ccc(-c2cc(C(F)(F)F)nn2C)cc1)Nc1cn[nH]c(=O)c1C(F)(F)F (stereo not drawn) [Example 245]	> 100		> 3000		10 to 30						

Now from value to compound, other results behind:

IC50 [1, 7] [nM]	IC50 [2, 8] [nM]	IC50 [3] [nM]	IC50 [4, 9] [nM]	IC50 [5, 10] [nM]	IC50 [6, 11] [nM]	Structure (SMILES)	IC50 ([1]; read-out: PARP7 binding inhibition IC50; TR-FRET, Biotin-labeled probe RBN011147) [nM]	IC50 ([2]; read-out: PARP1 activity inhibition IC50; 5 nM of PARP1 solution, method of test example 1) [nM]	IC50 ([4]; read-out: PARP7 activity inhibition IC50; 6.25 nM of PARP7 solution, method of test example 1) [nM]	IC50 ([5]; read-out: PARP7 activity inhibition IC50; Histone H1 coated plate, Biotin-Labeled NAD+, 2 h at room temperature, chemiluminescence) [nM]	IC50 ([6]; read-out: PARP2 activity inhibition IC50; 5 nM of PARP2, method of test example 1) [nM]
< 10	10 to 30	< 300	< 3	< 3	< 3	CC(CCCNC(=O)c1ccc(-c2ncc(C(F)(F)F)s2)cc1)Nc1cn[nH]c(=O)c1C(F)(F)F (stereo not drawn) [Example 17]					
10 to 30	> 100	300 to 1000	< 3	< 3	10 to 30	O=C(NCCCC(Nc1cn[nH]c(=O)c1C(F)(F)F)C(=O)N1CCCC1)c1ccc(-c2ncc(C(F)(F)F)cn2)cc1 (stereo not drawn) [Example 84]					
< 10	30 to 100	300 to 1000	< 3	< 3	3 to 10	CC1(C)CN(C(=O)C(CCCNC(=O)c2ccc(-c3ncc(C(F)(F)F)s3)cc2)Nc2cn[nH]c(=O)c2C(F)(F)F)C1 (stereo not drawn) [Example 85]					
< 10	10 to 30	< 300	< 3	< 3	3 to 10	O=C(NCCCC(Nc1cn[nH]c(=O)c1C(F)(F)F)C(=O)N1CCCC1)c1ccc(-c2ncc(C(F)(F)F)s2)cc1 (stereo not drawn) [Example 86]					
< 10	30 to 100	300 to 1000	< 3	< 3	3 to 10	O=C(NCCCC(Nc1cn[nH]c(=O)c1C(F)(F)F)C(=O)N1CCOCC1)c1ccc(-c2ncc(C(F)(F)F)s2)cc1 (stereo not drawn) [Example 88]					
< 10	30 to 100	300 to 1000	< 3	< 3	10 to 30	O=C(NCCCC(Nc1cn[nH]c(=O)c1C(F)(F)F)C(=O)N1CCCC1)c1cnc(-c2ncc(C(F)(F)F)cn2)cn1 (stereo not drawn) [Example 89]					
< 10	> 100	< 300	< 3	< 3	3 to 10	CC(C)(C)NC(=O)[C@@H](CCCNC(=O)c1ccc(-c2ncc(C(F)(F)F)s2)cc1)Nc1cn[nH]c(=O)c1C(F)(F)F [Example 221]					
< 10	10 to 30	< 300	< 3	< 3	< 3	O=C(NCCC[C@@H](Nc1cn[nH]c(=O)c1C(F)(F)F)C(=O)N1CC[C@@H](F)C1)c1ccc(-c2ncc(C(F)(F)F)s2)cc1 [Example 222]					
< 10	3 to 10	< 300	3 to 10	3 to 10	30 to 100	CN(C(=O)[C@@H](CCCNC(=O)c1ccc(-c2ncc(C(F)(F)F)s2)cc1)Nc1cn[nH]c(=O)c1C(F)(F)F)C1CC1 [Example 223]					
< 10	3 to 10	< 300	< 3	< 3	10 to 30	O=C(NCCC[C@@H](Nc1cn[nH]c(=O)c1C(F)(F)F)C(=O)N1CC(Cl)C1)c1ccc(-c2ncc(C(F)(F)F)s2)cc1 [Example 224]					
